These are literature values, as cited in EP1179349B1, “W/O emulsion adjuvant compositions for vaccines” (Lohmann Animal Health GmbH & Co. KG, priority 2000, dated 2002).

The conditions of this series: manufacturer's data.

For the molecule `CCCCCCCCCCCCCC(=O)OC(C)C` [Isopropylmyristat], the Toxizität result is on record as “Keine toxische Wirkung nachweisbar”.
